# Measurements as given in patent US8269000B2, “Substituted pyrimidine and triazine compounds” (Gruenenthal GmbH, priority 2008, dated 2012).
# Target: T1, rat B1R (Rattus norvegicus, UniProt P97583)
# T1 construct: expressed in transfected cells; host or cells: CHO K1 cells
# T1 sequence (P97583 1-337): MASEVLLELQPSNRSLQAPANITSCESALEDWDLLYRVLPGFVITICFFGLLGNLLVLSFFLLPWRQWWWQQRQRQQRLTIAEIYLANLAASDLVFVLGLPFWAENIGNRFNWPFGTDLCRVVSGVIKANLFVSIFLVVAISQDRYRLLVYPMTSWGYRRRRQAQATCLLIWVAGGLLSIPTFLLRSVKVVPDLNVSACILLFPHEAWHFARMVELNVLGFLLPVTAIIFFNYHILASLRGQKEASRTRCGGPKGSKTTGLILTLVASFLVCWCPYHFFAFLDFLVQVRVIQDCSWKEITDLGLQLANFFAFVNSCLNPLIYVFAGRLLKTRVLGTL
# Test: FLIPR Ca2+ functional study on bradykinin receptor 1 (rB1R CHO K1 cells)
# Format: cell-based
# Conditions: % inhibition rat B1R at 10 μM
# Protocol: The agonistic or antagonistic activity of substances can be quantified on the bradykinin receptor 1 (B1R) of the species human and rat using ectopically expressing cell lines (CHO K1 cells) and with the aid of a Ca^2+-sensitive dye (Fluo-4) using a fluorescent imaging plate reader (FLIPR). The indication in % activation is based on the Ca^2+ signal after addition of Lys-Des-Arg^9-bradykinin (0.5 nM) or Des-Arg^9-bradykinin (100 nM). Antagonists lead to suppression of the Ca^2+ influx after the addition of the agonist. % Inhibition compared with the maximum achievable inhibition is indicated.
# The agonistic or antagonistic activity of substances can be determined on the bradykinin receptor 1 (B1R) of the species human and rat using the following assay. According to this assay, the Ca^2+ influx through the channel is quantified with the aid of a Ca^2+-sensitive dye (Fluo-4 type, Molecular Probes Europe BV, Leiden, Netherlands) using a Fluorescent Imaging Plate Reader (FLIPR, Molecular Devices, Sunnyvale, USA).
# Chinese hamster ovary cells (CHO K1 cells) which have been stably transfected with the human B1R gene (hB1R cells) or with the B1R gene of the rat (rB1R cells) are used. For functional studies, the cells are plated out on black 96-well plates having a clear base (BD Biosciences, Heidelberg, Germany or Greiner, Frickenhausen, Germany) in a density of 20,000-35,000 cells/well. The cells are left overnight at 37° C. and with 5% CO2 in culture medium (hB1R cells: Nutrient Mixture Ham's F12, Gibco Invitrogen GmbH, Karlsruhe, Germany or DMEM, Sigma-Aldrich, Taufkirchen, Germany; rB1R cells: D-MEM/F12, Gibco Invitrogen GmbH, Karlsruhe, Germany), with 10 vol.% FBS (fetal bovine serum, Gibco Invitrogen GmbH, Karlsruhe, Germany or PAN Biotech GmbH, Aidenbach, Germany). On the following day, the cells are loaded for 60 minutes at 37° C. with 2.13 μM Fluo-4 (Molecular Probes Europe BV, Leiden, Netherlands) in HBSS buffer (Hank's buffered saline solution, Gibco Invitrogen GmbH, Karlsruhe, Germany) […] (Sigma-Aldrich, Taufkirchen, Germany) and 10 mM HEPES (Sigma-Aldrich, Taufkirchen, Germany). The plates are then washed twice with HBSS buffer, and HBSS buffer additionally containing 0.1% BSA (bovine serum albumin; Sigma-Aldrich, Taufkirchen, Germany), 5.6 mM glucose and 0.05% gelatin (Merck KGaA, Darmstadt, Germany) is added to the plates. After incubation for a further 20 minutes at room temperature, the plates are inserted into the FLIPR for Ca^2+ measurement. Alternatively, washing is carried out with buffer A (15 mM HEPES, 80 mM NaCl, 5 mM KCl, 1.2 mM CaCl2, 0.7 mM MgSO4, 2 g/l glucose, 2.5 mM probenecid) followed by loading with buffer A with added 2.5 μM Fluo-4 and 0.025% Pluronic F127 (Sigma-Aldrich, Taufkirchen, Germany). The cells are then washed twice with buffer A and incubated for 30 minutes at room temperature with buffer A additionally containing 0.05% BSA and 0.05% gelatin and are then inserted into the FLIPR for Ca^2+ measurement. The Ca^2+-dependent fluorescence is measured before and after the addition of substances (λex=488 nm, λem=540 nm). Quantification is carried out by measuring the highest fluorescence intensity (FC, fluorescence counts) over time.
# The FLIPR protocol consists of two substance additions. Test substances (10 μM) are first pipetted onto the cells and the Ca^2+ influx is compared with the control (hB1R: Lys-Des-Arg^9-bradykinin>=50 nM; rB1R: Des-Arg^9-bradykinin 10 μM). This gives the activation in %, based on the Ca^2+ signal after addition of Lys-Des-Arg^9-bradykinin (>=50 nM) or Des-Arg^9-bradykinin (10 μM). After 10-20 minutes' incubation, Lys-Des-Arg^9-bradykinin (hB1R) or Des-Arg^9-bradykinin (rB1R) is applied in the concentration of the EC80, and the influx of Ca^2+ is likewise determined. Antagonists lead to suppression of the Ca^2+ influx. The % inhibition compared with the maximum achievable inhibition is calculated. […]
row,SMILES,% inh. (rat B1R) 10 μM [%]
1,"COc1cc(C)c(S(=O)(=O)N2CCC[C@H]2COc2ccnc(N3CCN(CC4CCN(C)CC4)CC3)n2)c(C)c1 [H_CC-012, 4-[[(2S)-1-(4-methoxy-2,6-dimethylphenyl)sulfonyl-2-pyrrolidinyl]methoxy]-2-[4-[(1-methyl-4-pipendinyl)methyl]-1-piperazinyl]pyrimidine]",93

# Same assay, conditions: CHO-K1, % inhibition rat B1R at 10 μM, read-out: % inh. (rat B1R) 10 μM
row,SMILES,inhibition at 10 µM [%]
1,"COc1cc(C)c(S(=O)(=O)N2CCC[C@H]2COc2nccc(N3CCC(OCCN4CCCC4)(c4cccc(F)c4)CC3)n2)c(C)c1 [G_CC-086, 4-[4-(3-fluorophenyl)-4-(2-pyrrolidin-1-yl-ethoxy)-piperidin-1-yl]-2-[[(2S)-1-[(4-methoxy-2,6-dimethyl-phenyl)sulfonyl]-pyrrolidin-2-yl]-methoxy]-pyrimidine]",105
2,"COc1cc(C)c(S(=O)(=O)N(C)C(COc2nccc(N3CCC(Oc4ccccn4)CC3)n2)c2ccccc2)c(C)c1 (stereo not drawn) [G_CC-136, 4-methoxy-N,2,6-trimethyl-N-[1-phenyl-2-[4-(4-pyridin-2-yloxy-piperidin-1-yl)-pyrimidin-2-yl]oxy-ethyl]benzenesulfonic acid amide]",81
3,"COc1cc(C)c(S(=O)(=O)N2CCC[C@H]2COc2ccnc(N3CCCC3Cc3ccccn3)n2)c(C)c1 (stereo partly drawn) [H_CC-088, 4-[[(2S)-1-[(4-methoxy-2,6-dimethyl-phenyl)sulfonyl]-pyrrolidin-2-yl]-methoxy]-2-[2-(pyridin-2-yl-methyl)-pyrrolidin-1-yl]-pyrimidine]",67
4,"COc1cc(C)c(S(=O)(=O)N2CC(Oc3ccnc(N(C)CCN4CCC(c5ccccc5)(N(C)C)CC4)n3)C2)c(C)c1 [H_CC-069, 2-(4-dimethylamino-4-phenyl-piperidin-1-yl)-ethyl-[4-[1-[(4-methoxy-2,6-dimethyl-phenyl)sulfonyl]-azetidin-3-yl]oxy-pyrimidin-2-yl]-methyl-amine]",52
5,"CCCCC1(N(C)C)CCN(c2ccnc(OCC3CCCCN3S(=O)(=O)c3c(C)cc(OC)cc3C)n2)CC1 (stereo not drawn) [G_CC-069, [4-butyl-1-[2-[[1-[(4-methoxy-2,6-dimethyl-phenyl)sulfonyl]-piperidin-2-yl]-methoxy]-pyrimidin-4-yl]-piperidin-4-yl]-dimethyl-amine]",102
6,"CCCCC1(N(C)C)CCN(c2ccnc(OC[C@@H]3CCCN3S(=O)(=O)c3c(C)cc(OC)cc3C)n2)CC1 [G_CC-087, [4-butyl-1-[2-[[(2S)-1-[(4-methoxy-2,6-dimethyl-phenyl)sulfonyl]-pyrrolidin-2-yl]-methoxy]-pyrimidin-4-yl]-piperidin-4-yl]-dimethyl-amine]",101
7,"COc1cc(C)c(S(=O)(=O)N2CCCCC2COc2nccc(N(C)CCCN3CCC(c4ccccc4)(N(C)C)CC3)n2)c(C)c1 (stereo not drawn) [G_CC-101, 3-(4-dimethylamino-4-phenyl-piperidin-1-yl)-propyl-[2-[[1-[(4-methoxy-2,6-dimethyl-phenyl)sulfonyl]-piperidin-2-yl]-methoxy]-pyrimidin-4-yl]-methyl-amine]",105
8,"COc1cc(C)c(S(=O)(=O)N(C)C(COc2nccc(N3CCN(C(=O)c4cccnc4)CC3)n2)c2ccccc2)c(C)c1 (stereo not drawn) [G_CC-064, 4-methoxy-N,2,6-trimethyl-N-[2-[[4-[4-[oxo-(3-pyridyl)methyl]-1-piperazinyl]-2-pyrimidinyl]oxy]-1-phenylethyl]benzenesulfonamide]",55
9,"COc1cc(C)c(S(=O)(=O)N(C)C(COc2nccc(N3CCCC3Cc3ccccn3)n2)c2ccccc2)c(C)c1 (stereo not drawn) [G_CC-133, 4-methoxy-N,2,6-trimethyl-N-[1-phenyl-2-[4-[2-(pyridin-2-yl-methyl)-pyrrolidin-1-yl]-pyrimidin-2-yl]oxy-ethyl]benzenesulfonic acid amide]",78
10,"COc1cc(C)c(S(=O)(=O)N2CC(Oc3ccnc(N4CCCN(Cc5ccccn5)CC4)n3)C2)c(C)c1 [H_CC-077, 1-[4-[1-[(4-methoxy-2,6-dimethyl-phenyl)sulfonyl]-azetidin-3-yl]oxy-pyrimidin-2-yl]-4-(pyridin-2-yl-methyl)-[1,4]diazepan]",58
11,"COc1cc(C)c(S(=O)(=O)N2CCCCC2COc2nccc(N3CCC(O)(c4cccnc4)CC3)n2)c(C)c1 (stereo not drawn) [G_CC-067, 1-[2-[[1-(4-methoxy-2,6-dimethylphenyl)sulfonyl-2-piperidinyl]methoxy]-4-pyrimidinyl]-4-(3-pyridyl)-4-piperidinol]",104
12,"COc1cc(C)c(S(=O)(=O)N2CC(Oc3nccc(N(C)CCN4CCC(c5ccccc5)(N5CCCC5)CC4)n3)C2)c(C)c1 [G_CC-124, [2-[1-[(4-methoxy-2,6-dimethyl-phenyl)sulfonyl]-azetidin-3-yl]oxy-pyrimidin-4-yl]-methyl-[2-(4-phenyl-4-pyrrolidin-1-yl-piperidin-1-yl)-ethyl]amine]",57
13,"CCCCC1(N(C)C)CCN(c2nccc(OCC3CCCCN3S(=O)(=O)c3c(C)cc(OC)cc3C)n2)CC1 (stereo not drawn) [H_CC-062, [4-butyl-1-[4-[[1-[(4-methoxy-2,6-dimethyl-phenyl)sulfonyl]-piperidin-2-yl]-methoxy]-pyrimidin-2-yl]-piperidin-4-yl]-dimethyl-amine]",73
14,"COc1cc(C)c(S(=O)(=O)N2CCC[C@H]2COc2ccnc(N(C)CCN3CCC(c4ccccc4)(N(C)C)CC3)n2)c(C)c1 [H_CC-054, 2-(4-dimethylamino-4-phenyl-piperidin-1-yl)-ethyl-[4-[[(2S)-1-[(4-methoxy-2,6-dimethyl-phenyl)sulfonyl]-pyrrolidin-2-yl]-methoxy]-pyrimidin-2-yl]-methyl-amine]",83
15,"COc1cc(C)c(S(=O)(=O)N(C)CCOc2nccc(N3CCC(c4ccccc4)(N4CCCC4)CC3)n2)c(C)c1 [G_CC-116, 4-methoxy-N,2,6-trimethyl-N-[2-[4-(4-phenyl-4-pyrrolidin-1-yl-piperidin-1-yl)-pyrimidin-2-yl]oxy-ethyl]benzenesulfonic acid amide]",64
16,"COc1cc(C)c(S(=O)(=O)N2CCCC(Oc3ccnc(N(C)CCN4CCC(c5ccccc5)(N5CCCC5)CC4)n3)C2)c(C)c1 (stereo not drawn) [H_CC-066, [4-[1-[(4-methoxy-2,6-dimethyl-phenyl)sulfonyl]-piperidin-3-yl]oxy-pyrimidin-2-yl]-methyl-[2-(4-phenyl-4-pyrrolidin-1-yl-piperidin-1-yl)-ethyl]amine]",56
17,"COc1cc(C)c(S(=O)(=O)N2c3ccccc3C[C@H]2COc2ccnc(N3CCN(C)CC3)n2)c(C)c1 [H_CC-016, (2S)-1-(4-methoxy-2,6-dimethylphenyl)sulfonyl-2-[[2-(4-methyl-1-piperazinyl)-4-pyrimidinyl]oxymethyl]indoline]",67
